# Results from patent publication US20220009920A1 (GB005, Inc., priority 2020, published 2022).
# What was measured:
# Experiment in all cases: Large panel kinase profiling
# Type in all cases: biochemical
# Settings in all cases: 1 μM test article, 1 mM ATP
# EPHB4 = target: T1, EPHB4 (Homo sapiens, UniProt P54760)
# T1 sequence (P54760 16-987): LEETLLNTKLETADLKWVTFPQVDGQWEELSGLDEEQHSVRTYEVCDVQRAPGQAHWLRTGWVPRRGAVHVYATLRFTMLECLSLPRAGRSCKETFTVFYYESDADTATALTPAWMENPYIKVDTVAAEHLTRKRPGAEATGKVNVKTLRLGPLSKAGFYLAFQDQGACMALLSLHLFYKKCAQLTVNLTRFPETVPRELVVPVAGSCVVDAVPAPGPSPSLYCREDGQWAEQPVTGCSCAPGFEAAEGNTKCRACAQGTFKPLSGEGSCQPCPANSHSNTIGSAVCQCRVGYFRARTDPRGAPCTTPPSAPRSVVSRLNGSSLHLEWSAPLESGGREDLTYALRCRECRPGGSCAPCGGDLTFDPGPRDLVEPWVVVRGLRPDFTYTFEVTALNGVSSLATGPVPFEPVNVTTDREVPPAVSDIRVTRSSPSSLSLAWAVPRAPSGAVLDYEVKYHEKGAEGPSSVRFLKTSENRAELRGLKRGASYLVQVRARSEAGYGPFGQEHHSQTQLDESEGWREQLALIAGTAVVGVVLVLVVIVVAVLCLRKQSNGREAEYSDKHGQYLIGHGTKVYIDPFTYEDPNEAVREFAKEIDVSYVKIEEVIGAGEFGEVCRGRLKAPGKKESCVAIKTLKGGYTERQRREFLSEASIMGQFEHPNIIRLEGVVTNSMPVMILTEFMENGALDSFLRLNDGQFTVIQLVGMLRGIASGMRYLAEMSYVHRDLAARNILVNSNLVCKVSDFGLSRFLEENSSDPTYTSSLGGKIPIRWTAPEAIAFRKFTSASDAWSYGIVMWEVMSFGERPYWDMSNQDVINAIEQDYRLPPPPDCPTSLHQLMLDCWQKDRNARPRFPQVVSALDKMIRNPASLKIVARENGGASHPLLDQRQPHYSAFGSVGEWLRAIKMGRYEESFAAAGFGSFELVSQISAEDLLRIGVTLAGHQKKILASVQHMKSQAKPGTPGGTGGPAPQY
# Summary of the method: (§1)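 Activity is measured in real time from the CSox sensor's fluorescence at 485 nm after 360 nm excitation, sampled every minute. Assays run at 30° C. with 1 mM ATP and a single 1 μM compound dose.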
# PRKCQ/PKCQ = PRKCQ/PKCQ (Homo sapiens, UniProt Q04759)
# Summary of the method: as §1
# TXK = target: T2, TXK (Homo sapiens, UniProt P42681)
# T2 construct: AssayQuant Technologies, Inc. (contract laboratory that ran the panel)
# T2 sequence (P42681 1-527): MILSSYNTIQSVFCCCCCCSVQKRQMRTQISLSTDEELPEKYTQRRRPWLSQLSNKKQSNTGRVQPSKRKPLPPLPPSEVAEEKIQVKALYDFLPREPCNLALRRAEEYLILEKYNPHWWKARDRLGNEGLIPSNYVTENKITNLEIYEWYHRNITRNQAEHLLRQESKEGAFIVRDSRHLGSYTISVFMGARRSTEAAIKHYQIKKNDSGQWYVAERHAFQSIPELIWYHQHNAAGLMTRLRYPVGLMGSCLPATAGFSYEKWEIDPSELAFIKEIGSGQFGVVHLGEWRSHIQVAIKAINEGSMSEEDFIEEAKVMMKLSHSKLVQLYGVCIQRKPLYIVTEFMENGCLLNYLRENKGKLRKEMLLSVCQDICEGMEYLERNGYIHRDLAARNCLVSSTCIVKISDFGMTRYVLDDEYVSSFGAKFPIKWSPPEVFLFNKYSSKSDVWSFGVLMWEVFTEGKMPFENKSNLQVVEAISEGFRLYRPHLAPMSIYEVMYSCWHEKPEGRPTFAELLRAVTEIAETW
# Summary of the method: as §1
# CDK7 = target: T3, CDK7 (Homo sapiens, UniProt P50613)
# T3 construct: AssayQuant Technologies, Inc. (ran the panel)
# Summary of the method: as §1
# MAPK11/P38B = target: T4, MAPK11/P38B (Homo sapiens, UniProt Q15759)
# T4 construct: AssayQuant Technologies, Inc. (service provider)
# Summary of the method: as §1
# T3 sequence (P50613 whole entry, species assumed): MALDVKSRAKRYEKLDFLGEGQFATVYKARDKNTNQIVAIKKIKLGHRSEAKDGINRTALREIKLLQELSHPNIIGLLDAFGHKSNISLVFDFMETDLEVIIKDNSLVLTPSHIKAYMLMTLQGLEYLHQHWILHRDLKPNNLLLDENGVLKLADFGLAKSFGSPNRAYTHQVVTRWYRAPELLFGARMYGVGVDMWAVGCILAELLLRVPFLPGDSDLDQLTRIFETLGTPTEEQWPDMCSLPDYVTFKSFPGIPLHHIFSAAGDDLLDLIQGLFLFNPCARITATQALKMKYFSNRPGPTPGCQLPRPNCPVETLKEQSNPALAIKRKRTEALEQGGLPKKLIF
# T3 sequence (P51946 whole entry partner, species assumed): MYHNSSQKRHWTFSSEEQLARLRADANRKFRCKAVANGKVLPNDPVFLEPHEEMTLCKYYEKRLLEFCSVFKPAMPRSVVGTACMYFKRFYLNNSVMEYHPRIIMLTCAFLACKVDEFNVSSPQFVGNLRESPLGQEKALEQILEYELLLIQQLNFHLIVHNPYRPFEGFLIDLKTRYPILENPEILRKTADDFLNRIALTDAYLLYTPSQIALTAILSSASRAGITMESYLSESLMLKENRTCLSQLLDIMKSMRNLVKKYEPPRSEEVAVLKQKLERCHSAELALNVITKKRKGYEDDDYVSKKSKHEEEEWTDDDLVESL
# T3 sequence (P51948 whole entry partner, species assumed): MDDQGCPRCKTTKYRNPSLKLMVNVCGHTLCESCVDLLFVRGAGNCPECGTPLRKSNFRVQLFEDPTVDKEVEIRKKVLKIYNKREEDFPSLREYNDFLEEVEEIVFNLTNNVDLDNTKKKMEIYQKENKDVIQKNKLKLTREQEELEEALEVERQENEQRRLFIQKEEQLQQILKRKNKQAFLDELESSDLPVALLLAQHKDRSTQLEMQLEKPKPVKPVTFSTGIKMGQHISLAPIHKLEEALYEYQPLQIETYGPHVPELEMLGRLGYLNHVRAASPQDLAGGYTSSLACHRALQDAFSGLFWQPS
# T4 sequence (Q15759 whole entry): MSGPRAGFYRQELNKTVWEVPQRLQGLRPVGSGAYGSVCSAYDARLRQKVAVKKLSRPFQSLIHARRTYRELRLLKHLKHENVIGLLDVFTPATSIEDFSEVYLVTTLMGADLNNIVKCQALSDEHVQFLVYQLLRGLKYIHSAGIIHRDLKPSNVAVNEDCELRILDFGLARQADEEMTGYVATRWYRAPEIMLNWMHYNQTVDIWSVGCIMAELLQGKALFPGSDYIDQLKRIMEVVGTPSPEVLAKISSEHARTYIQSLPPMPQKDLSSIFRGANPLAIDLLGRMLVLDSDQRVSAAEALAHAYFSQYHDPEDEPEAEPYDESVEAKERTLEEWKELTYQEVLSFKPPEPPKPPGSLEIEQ
# Chain of PRKCQ/PKCQ (Q04759 whole entry): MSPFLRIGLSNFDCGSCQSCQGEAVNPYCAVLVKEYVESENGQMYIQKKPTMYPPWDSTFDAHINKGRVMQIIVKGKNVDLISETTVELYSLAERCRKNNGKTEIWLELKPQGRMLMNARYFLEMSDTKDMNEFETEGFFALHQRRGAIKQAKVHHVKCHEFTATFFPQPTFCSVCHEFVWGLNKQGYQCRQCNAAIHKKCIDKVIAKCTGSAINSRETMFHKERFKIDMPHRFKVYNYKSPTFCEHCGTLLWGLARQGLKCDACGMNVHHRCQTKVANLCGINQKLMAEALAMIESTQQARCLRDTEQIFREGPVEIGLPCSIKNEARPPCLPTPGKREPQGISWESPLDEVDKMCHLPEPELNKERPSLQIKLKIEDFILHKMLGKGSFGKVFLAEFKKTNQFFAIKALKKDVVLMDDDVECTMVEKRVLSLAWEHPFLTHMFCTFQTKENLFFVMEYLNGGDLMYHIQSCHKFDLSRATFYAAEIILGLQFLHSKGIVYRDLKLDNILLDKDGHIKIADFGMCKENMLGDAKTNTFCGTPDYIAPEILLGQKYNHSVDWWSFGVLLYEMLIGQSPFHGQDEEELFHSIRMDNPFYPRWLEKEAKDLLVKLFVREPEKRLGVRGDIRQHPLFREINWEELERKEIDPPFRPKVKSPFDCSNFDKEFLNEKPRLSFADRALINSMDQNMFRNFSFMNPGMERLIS
SMILES,inhibition at 1 µM (EPHB4) [%],inhibition at 1 µM (PRKCQ/PKCQ) [%],inhibition at 1 µM (TXK) [%],inhibition at 1 µM (CDK7) [%],inhibition at 1 µM (MAPK11/P38B) [%]
"C=CC(=O)N1CCCC(c2c(F)cc(C(N)=O)c3[nH]c4c(c23)CCCCC4)C1 (single isomer, unassigned) [Compound 5-6]",7,-3.7,74.7,-10.1,-3.3
"C=CC(=O)N1CCC[C@@H](c2c(F)cc(C(N)=O)c3[nH]c4c(c23)CCC4)C1 [Compound 10-2, (S)-8-(1-acryloylpiperidin-3-yl)-7-fluoro-1,2,3,4-tetrahydrocyclo-penta[b]indole-5-carboxamide]",-8.5,-72.5,71,14.1,5.7
"C=CC(=O)N1CCC[C@@H](c2c(F)cc(C(N)=O)c3[nH]c4c(c23)CC2(CC4)CC2)C1 [Compound 6-2, (S)-5-(1-acryloylpiperidin-3-yl)-6-fluoro-1,2,4,9-tetrahydrospiro[carbazole-3,1′-cyclopropane]-8-carboxamide]",7.4,0.7,59.1,-6,32.9
